The test system of assay [1] is Soybean Target Spot (Corynespora cassicola). The experiment in a line: Greenhouse trial on potted soybean plants, target spot (Example 8). The assay is classed as in vivo.
The subject of another assay is Botrytis. The experiment in a line: Greenhouse trial on potted plants, Botrytis in pepper (Example 7).
Assay [2] has as its system Alternaria solani in tomato (early blight disease). The experiment in a line: Greenhouse efficacy on tomato early blight, lesion area at 4 dpi (Examples 1-3). The class given is in vivo.
The subject of assay [3] is cucumber downy mildew. As to the kind of experiment: Greenhouse efficacy on cucumber downy mildew (Example 4). The assay is classed as in vivo.
For assay [4], the system named is tomato late blight disease. The class given is in vivo.
In assay [5] the test system is tomato early blight disease. As to the kind of experiment: Greenhouse efficacy on tomato early blight disease (Example 6). The assay is classed as in vivo.
Assay [6] relates to cucumber downy mildew. As to the kind of experiment: Greenhouse efficacy on cucumber downy mildew (Example 9). The assay is classed as in vivo.
A further assay has as its system Target Spot. As to the kind of experiment: Greenhouse trial on potted plants, target spot in soybean (Example 7).
In a further assay the test system is Early Blight. As to conditions: Tomato.
For assay [7], the system named is tomato early blight disease. As to the kind of experiment: Greenhouse trial on potted tomato plants, early blight (Example 10). The class given is in vivo.
Setting [8] is: 17.5 g/L, 700 g Cu/HA (standard).
[9] abbreviates: 0.75 g/L, 30 g Cu/HA (standard).

Read-outs that look alike come from different tables or passages of the source.

Experimental for Botrytis: Following trials were conducted on crops (potted plants) infected with the pathogen/disease in a greenhouse trial.

On to `O=C1C2CC=CCC2C(=O)N1SC(Cl)(Cl)Cl` (stereo not shown) [captan], for which the “Efficacy (%)” value in assay [1] (0.02 g/L, 1.56 g Captan/ha) worked out at 0.4%; in assay [1] (6 g/L, 467 g Captan/ha (full recommended dose)), 100%; in the assay on Botrytis (0.002 g/l, 0.16 gai/ha), 20.4%.

As for `O=S(=O)([O-])[O-].[Cu+2].[Cu+2].[Cu+2].[Cu+2].[OH-].[OH-].[OH-].[OH-].[OH-].[OH-]` [tribasic copper sulphate], the Observed efficacy % is given as 31% in assay [2] (Table 1, 150 g/HA of Cu); 88% in assay [2] (Table 1, 700 g/HA of Cu (standard treatment)); 40.2% in [2] (Table 2, 0.75 g/L, 150 g Cu/HA); 86.9% in [2] (Table 2, 17.5 g/L, 700 g Cu/HA (standard)); 23% in [2] (Table 3, 0.75 g/L); 75% in assay [2] (Table 3, 17.5 g/L (standard)). Besides, the Observed efficacy % is on record as 18.5% in [4] (0.25 g/L, 10 g Cu/HA); 62.9% in [4] (setting [9]); 18.5% in assay [5] (0.75 g/L, 30 g Cu/HA); 57.6% in assay [5] (setting [8]); 50.7% in the assay with cucumber downy mildew [6] (0.25 g/L, 10 g Cu/HA); 96.7% in the assay on cucumber downy mildew [6] (setting [9]). For the same compound, the Observed efficacy is recorded as −7.6 in the assay with cucumber downy mildew [3] (0.13 g/L, 5.2 g Cu/HA) and 94.9 in the assay on cucumber downy mildew [3] (setting [8]).

With `O=C(O)c1ccccc1O` [Salicylic acid], the Observed efficacy % in [2] (Table 1, 20 g/HA of SA) is 13.3%; in [2] (Table 2, 40 mg/L, 2.5 g SA/HA) it was 23.4%; in assay [2] (Table 2, 80 mg/L, 5 g SA/HA), 22.1%; in [2] (Table 2, 320 mg/L, 10 g/HA), −2.3%; in assay [2] (Table 2, 320 mg/L, 20 g/HA), −2.7%.

For the compound `O=C1c2ccccc2C(=O)N1SC(Cl)(Cl)Cl` [folpet], the “Efficacy (%)” value in assay [1] (0.015 g/L, 0.63 g Folpet/ha) was determined as 34.7%; in [1] (5 g/L, 208.5 g Folpet/ha (full recommended dose)), 98.4%; with Botrytis (0.002 ml/l, 0.1 gai/ha), 9.3%; with Target Spot (0.015 g/l, 0.625 gai/ha), 34.7%.

In the case of mancozeb, the “Efficacy (%)” value in the assay with Early Blight (0.0187 g/l, 1.4 gai/ha) is −12.6%; with Botrytis (0.0168 g/l, 1.26 gai/ha) it was 26.4%; in the assay with Target Spot (0.0075 g/l, 0.56 gai/ha) it was −6.6%.

Regarding `O=C([O-])c1ccccc1O.[K+]` [potassium salicylate], the Observed efficacy % in [2] (Table 3, 410 mg/L) is listed as 5.8%; in assay [4] (137 mg/L, 1.7 g SA/HA), 15.2%; in [5] (310 mg/L, 3.875 g SA/HA), 2.2%; in assay [5] (410 mg/L, 5.125 g SA/HA) it was 13.1%; in assay [5] (620 mg/L, 7.75 g/HA), 11.4%; in the assay with cucumber downy mildew [6] (103 mg/L, 1.29 g KSA/HA), 14.0%. In addition, the Observed efficacy % is on record as −1.1% with cucumber downy mildew [6] (137 mg/L, 1.71 g KSA/HA); −2.7% in the assay with cucumber downy mildew [6] (207 mg/L, 2.59 g KSA/HA); 0.4% in [7] (0.1 g/L, 1.25 gai/ha); 2.3% in [7] (0.41 g/L, 5.13 gai/ha); 37.4% in assay [7] (0.82 g/L, 10.25 gai/ha); 34.4% in [7] (1.64 g/L, 20.5 gai/ha). In the assay with cucumber downy mildew [3] (71 mg/L, 0.89 g SA/HA), this compound gave an Observed efficacy of 21.9. Also, the “Efficacy (%)” value in assay [1] (25 mg/L, 0.31 g KSA/ha) was 19.5%; in [1] (100 mg/L, 1.25 g KSA/ha) it was 12.4%; in [1] (410 mg/L, 5.13 g KSA/ha), 1.8%; in assay [1] (820 mg/L, 10.27 g KSA/ha), −6.1%; in [1] (1.64 g/L, 20.54 g KSA/ha), −11.4%; in the assay on Early Blight (0.41 g/l, 5.13 gai/ha) it was −3%. Further, the “Efficacy (%)” value in the assay on Botrytis (0.025 g/l, 0.31 gai/ha (mancozeb and captan sections)) was −5.2%; with Botrytis (0.1 g/l, 1.25 gai/ha (mancozeb and captan sections)), −3.9%; with Botrytis (folpet section, 0.1 g/l, 1.25 gai/ha) it was 12%; in the assay with Target Spot (captan and folpet sections, 0.025 g/l, 0.31 gai/ha), 19.5%; in the assay on Target Spot (captan and folpet sections, 0.1 g/l, 1.25 gai/ha), 12.4%; with Target Spot (captan and folpet sections, 0.41 g/l, 5.13 gai/ha) it was 1.8%. Moreover, the “Efficacy (%)” value in the assay on Target Spot (captan and folpet sections, 0.82 g/l, 10.25 gai/ha) is −6.1%; in the assay with Target Spot (captan and folpet sections, 1.64 g/l, 20.5 gai/ha), −11.4%; in the assay on Target Spot (mancozeb section, 0.025 g/l, 0.31 gai/ha), 16.8%; in the assay on Target Spot (mancozeb section, 0.1 g/l, 1.25 gai/ha), 12.6%; in the assay on Target Spot (mancozeb section, 0.41 g/l, 5.13 gai/ha), 27.6%; with Target Spot (mancozeb section, 0.82 g/l, 10.25 gai/ha), −3.8%. In addition, in the assay on Target Spot (mancozeb section, 1.64 g/l, 20.5 gai/ha), the “Efficacy (%)” value is given as 6.3%.
